Assay results taken from patent publication US8247399B2, “Photoactive metal nitrosyls for blood pressure regulation and cancer therapy” (The Regents of the University of California, priority 2004, dated 2012).

How the values were obtained:
[1] = system: rat aortic rings; assay: Relaxation of rat thoracic aorta rings precontracted with phenylephrine; conditions: for concentration at which relaxation effect is shown: Ru-drug under UV light, DEA/NO control drug
Method: Male rats (200-250 g; Sprague-Dawley) were stunned and killed by cervical dislocation. The thoracic aortas were carefully removed, cleaned of connective tissue and cut into 3-4 ring segments of approximately 4 mm in length. Aortic rings were mounted in 10 mL organ baths containing Krebs-bicarbonate buffer (composition (mM): Na^+ 143; K^+ 5.9; Ca^2+ 2.5; Mg^2+ 1.2; Cl^− 128; HCO3^− 25; HPO4^2− 1.2; SO4^2− 1.2; D-glucose 11) maintained at 37° C. and gassed with 95% O2/5% CO2. Tension was initially set at 1 g and reset at intervals following an equilibrium period of 1 hour during which time fresh Krebs-bicarbonate buffer was replaced every 15-20 minutes. After equilibrium, the rings were primed with KCl (4.8×10^−2 M) before a supramaximal concentration of phenylephrine (PE; 10^−6 M) was added. Once this response had stabilized, acetylcholine (ACH; 10^−6M) was added to the bath to assess the integrity of endothelium of WT vessels. If the contractions to PE were not maintained, or relaxations greater than 50% of the PE-induced tone to ACH were not observed, the tissues were discarded.
Tissues were then washed for 30 minutes (by addition of fresh Krebs-bicarbonate buffer at 15 minutes intervals) after which cumulative concentrations of PE (10^−9-10^−6 M) were added to the organ bath. The tissues were then washed over 60 minutes to restore basal tone before contracting to approximately 80% of the maximum PE-induced response. Once a stable response to PE was achieved, cumulative concentration-response curves to the NO-donors were constructed in the presence and absence of light ([…]) and the soluble […] ODQ ([…]).

[2] = Photorelease (photodissociation) of NO from the metal nitrosyl in solution under illumination; format: physicochemical; conditions: for type of light that releases NO: in DMF, UV-cut filters
Description: FIG. 7(A) provides a plot of KNO values versus light power. Increase in A550 of a solution of [(PaPy3)Fe(NO)](ClO4)2 in MeCN upon illumination with a 60 W tungsten lamp (Patra et al., Inorg Chem, 42:6812-6823, 2003), KNO (×10^3 s^−1)=5.60±0.014.
FIG. 8(C) provides a plot of the electronic absorption spectrum of [(bpb)Ru(NO)(Cl)] (broken line) and [(Me2bqb)Ru(NO)(Cl)] (solid line) in DMF. Both nitrosyls are photolabile.
(§1) Dashed line: met-Mb; dash-dot line: reduced Mb; dotted line: a mixture of [(PaPy3)Ru(NO)](BF4)2 and reduced Mb (1.5:1) under ordinary light (20 min); solid line: same mixture exposed to UV (30 s). […] Dash-dot line: oxidized and dash line: reduced enzyme; dotted line: reduced enzyme plus [(PaPy3)Ru(NO)](BF4)2 under ordinary light (20 min); solid line: same mixture exposed to UV light for 30 s (Patra and Mascharak, Inorg Chem, 42:7363-7365, 2003, herein incorporated by reference).
As described herein, nitrosyls like [Fe(PaPy3)(NO)](CIO4)2 and [Mn(PaPy3)(NO)](BF4)2 are converted into the corresponding solvato species [M(PaPy3)(solv)]^2+ following NO loss. Clean isosbestic points in the multiple trace spectra (e.g., FIG. 6B and FIG. 6C) indicate that the [M(PaPy3)(NO)]^2+→[M(PaPy3)(solv)]^2+ transformation is likely devoid of other intermediates. […] Preliminary actinometric measurements have afforded a quantum yield of 0.12 for the light reaction of [Ru(PaPy3)(NO)](BF4)2 in water. Collectively, these properties indicate that the nitrosyl complexes disclosed herein are good light-induced NO donors.
The light characteristics of any one of these metal nitrosyls can be changed (tuned) with minor alterations in the ligand frames such as changing a donor atom or ring size. This is a tremendous advantage of the present approach, thereby freeing users of this technology from the light requirements of photoactive nitrosyls of the prior art, which hereto have been found serendipitously. […] (BF4)2 releases NO only under UV light (λ<350 nm).

[3] = target: T1, papain (Carica papaya, UniProt P00784); assay: Papain inhibition under light (l-BApNA substrate); format: biochemical; conditions: 3 mM nitrosyl 1 mL + papain 3 mg/mL 1 mL, 50 W tungsten lamp 3 min, 25° C., pH 6.2
T1 sequence (P00784 134-345): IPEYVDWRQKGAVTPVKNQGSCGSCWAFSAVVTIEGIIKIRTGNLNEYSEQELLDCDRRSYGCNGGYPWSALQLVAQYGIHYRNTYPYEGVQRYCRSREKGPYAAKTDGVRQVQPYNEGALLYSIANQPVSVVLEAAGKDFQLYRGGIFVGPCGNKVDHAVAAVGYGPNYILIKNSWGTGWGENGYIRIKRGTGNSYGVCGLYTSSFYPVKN
Method: Twice-crystallized papain was activated by stirring the enzyme in 50 mM phosphate buffer (pH 6.2) containing 10 mM dithiothreitol (DTT) for 24 h. The solution was then passed through a Pharmacia 20 mL desalting column equipped with a BioRad FPLC absorbance/electrical-conducting detector at 4° C. The activated protein (devoid of DTT) eluted from the column in 2 minutes at a flow rate of 2 mL/min, and was subsequently lyophilized and stored at −20° C.
Papain activity was determined spectrophotometrically at 410 nm by monitoring the formation of p-nitroaniline from the substrate Nα-Benzoyl-l-arginine-p-nitroanilide (l-BApNA). A 1.5 mM stock solution of l-BApNA was prepared in 50 mM phosphate buffer (pH 6.2, 1 mM EDTA, 0.1 M NaCl) and stored at room temperature. A 4.6 μM stock solution of active papain was also prepared in 50 mM phosphate buffer (pH 6.2, 1 mM EDTA, 0.1 M NaCl) and stored at 0° C. Finally, a freshly prepared 3.0 mM stock solution of 1 was prepared in 50 mM phosphate buffer (pH 6.2, 1 mM EDTA, 0.1 M NaCl) and stored in the dark.
[…] The mixture was then exposed to a 50 W tungsten bulb (Afshar at al., Inorg Chem, 43:5736-5743, 2004) for 60 s and 350 μL of the substrate was quickly added. The residual enzyme activity was monitored at 25° C. […] After each exposure, 350 μL of the substrate was added to the solution and the residual enzyme activity was monitored at 25° C. […]

[4] = system: reduced cyt c oxidase; assay: Light-triggered NO transfer to reduced cytochrome c oxidase; format: biochemical; conditions: low intensity UV light 30 s
Method: as §1
(§2) When this process is repeated in presence of reduced Mb, the 434 nm Soret band of reduced Mb is rapidly changed to 420 nm indicating formation of the Mb-NO adduct (FIG. 9B). Clearly [Ru(PaPy3)(H2O)](BF4)2 acts as an efficient NO donor that is activated by light. Similar results have been obtained with cytochrome c oxidase. Exposure of a mixture of [Ru(PaPy3)(H2O)](BF4)2 and reduced cytochrome c oxidase to UV light rapidly generated the NO adduct (Soret band at 428 nm, FIG. 9C). […] Other compounds according to the disclosure herein are known to, or are predicted to, have similar results with regard to being able to facilitate NO transfer to Mb and Hb.

[5] = system: rat aortic smooth muscle cells; assay: cGMP generation in cultured rat aortic smooth muscle cells; format: cell-based
Method: Primary rat aortic smooth muscle cells were cultured and exposed to increasing log doses of Ru—NO with and without a 5 minute exposure to low-intensity UV light (λmax=254 nm) followed by a 10 minute incubation. The cells were then lysed and the cGMP production was assayed Cyclic GMP accumulation was measured using a commercially available ELISA kit (Amersham Biosciences) as per the manufacturer instructions.

[6] = system: reduced Mb; assay: Light-triggered NO transfer to reduced myoglobin; format: biochemical; conditions: aqueous solution, low intensity UV light 30 s, nitrosyl:Mb 1.5:1
Method: as §1, §2

CCN(CC)/[N+]([O-])=N/[O-].[Na+] [DEA/NO, reference compound]
concentration at which relaxation effect is shown [1]: 0.01 µM

[(Me2bqb)Ru(NO)(Cl)]
type of light that releases NO [2]: releases NO upon illumination with visible light

[(PaPy3)Fe(NO)](ClO4)2
wavelength of light under which NO is released [2]: ~500 nm
KNO (rate of NO loss) ([2]; in MeCN, 60 W tungsten lamp): 5.60±0.014 ×10^3 s^−1

[(PaPy3)Mn(NO)]ClO4
papain enzymatic activity after exposure [3]: completely eliminating the enzymatic activity

[(PaPy3)Ru(NO)](BF4)2
formation of cyt c oxidase NO-adduct [4]: conversion of reduced cyt c oxidase to its NO-adduct
wavelength of light under which NO is released [2]: < 350 nm
quantum yield of the light reaction ([2]; in water, preliminary actinometric measurements): 0.12
increase in cGMP production ([5]; 0.1 mM, low-intensity UV light (λmax=254 nm) 5 min): 13 fold
increase in cGMP concentration in the dark ([5]; dark): not observed in the dark
light dependence of relaxation effect [1]: only under exposure to light
concentration at which relaxation effect is shown [1]: 10 µM
relaxation compared with conventional NO donor ([1]; UV light): comparable to that observed upon treatment of the tissue with a conventional NO donor (DEA/NO)
contraction of tissue when the light was turned off ([1]; light turned off): ~25%
formation of Mb-NO adduct [6]: conversion of reduced Mb to Mb-NO

[(bpb)Ru(NO)(Cl)]
type of light that releases NO [2]: releases NO upon illumination with UV light
